Experimental findings from patent publication US12527776B2, “Treatment of ciliopathies using inhibitors of glucosylceramide synthase (GCS)” (GENZYME CORPORATION, priority 2019, dated 2026) are described below.

SMILES strings stand for the structures.

Assay [1] concerns Bbs2−/− immortalized kidney epithelial cells. Put plainly: Cell culture and primary cilium staining (cilia length, GSL localization). Format: cell-based, mouse. The note with it: serum free, compound for 6-24 hours. The procedure: Cell Culture and Primary Cilium Staining
Wild type and Bbs2^−/− kidney epithelium cell lines were established and maintained as described previously (See Natoli T et al., Nat Med, 16:788-792 (2010); and Humes H D. et al., Am J Kidney Dis, 39:1078-1087(2002)). Cells were cultured on collagen I coated glass slides in DMEM containing 1% penicillin/streptomycin, 10% FBS. To determine the effect of compounds on cilia and lipid localization, cells were cultured in serum free media for 24 hours followed by the addition of Compound 1 for 6-24 hours. Cells were then fixed with 4% paraformaldehyde followed by immunofluorescence with anti-GM3 (Creative Biolabs), anti-ceramide (Sigma Aldrich), anti-GM1 (Invitrogen), and anti-acetylated tubulin (Cell Signaling) antibodies. Cilia length was quantified using Metamorph software.

The test system of assay [2] is Bbs2−/− mice. Put plainly: Retinal degeneration in Bbs2−/− mice (OCT, immunofluorescence). It counts as in vivo, mouse. The note with it: treatment for 5 months from one month of age. The source says:
(§1) A Bbs2^−/− mouse model has been described by Nishimura D Y et al. (Proc Natl Acad Sci, 101:16588-16593 (2004)) with exons 5-14 of Bbs2 replaced with a neomycin cassette. Mice were backcrossed into 129/SvJ background. Treated Bbs2^−/− mice were fed ad libitum with 0.033% w/w of Compound 1 incorporated in feed from the age of 1 month to 6 months. Bbs2^−/− and Wt control animals were fed regular 5053 chow (LabDiet). To establish metabolic disease, Bbs2^−/− mice were left untreated until four-months of age, and then treated with Compound 1 incorporated into feed for the fifth and sixth months.
A non-invasive imaging technique, optical coherence tomography (OCT) using the Bioptigen Envisu R2200 instrument, was used to generate a cross-sectional image of the retina with 2 micron resolution to measure the thickness of the retinal cell layers in vivo.
Paraffin-embedded samples of eyes from Wt and Bbs2^−/− mice were prepared and analysed as described supra. The primary antibodies used were rhodopsin (Thermo Scientific) and cone arrestin (EMD Millipore).

Assay [3] deals with Bbs2−/− mice. Put plainly: Olfaction (buried treat test) and main olfactory epithelium immunofluorescence in Bbs2−/− mice. The note with it: feed from 1 to 6 months of age. It counts as in vivo, mouse.
Text: as §1
Animal olfaction was tested using a protocol adapted from Yang M. et al. (Curr Protoc Neurosci, DOI:10.1002/0471142301.ns0824s48 (2009)). Before testing, animals were acclimatised for three days and then fasted for 18 hours in cage with Alpha Dri bedding. Treat (Bioserv Supreme Mini-Treats, Chocolate flavor) was buried 1 cm deep in a clean cage with 3 cm deep bedding. Animals were placed in cage and time was recorded when treat was found and bitten into.
Paraffin-embedded samples of nasal cavities from Wt and Bbs2^−/− mice were prepared and analysed as described supra. The primary antibodies used were acetylated tubulin (Cell Signaling Technology), cytokeratin 14 (Protein Tech), SRY-Box 2 (Cell Signaling Technology), doublecortin (Cell Signaling Technology), and olfactory marker protein (Wako).

Assay [4] deals with human preadipocytes SQ cells with BBS1, BBS2 or BBS10 knocked-down. The assay is described as follows: In vitro adipocyte differentiation assay. Format: cell-based. The note with it: 1.25-10 μM, 10 days differentiation. As to the method:
In Vitro Adipocyte Differentiation Assay
In order to examine the effect of Compound 1 on other mutations, we developed an in vitro differentiation assay in human preadipocyte cells. The BBS genes BBS1, BBS2, or BBS10 were knocked-down in cells using siRNA. For this, human preadipocytes SQ cells (Lonza) were plated in PGM-2 Preadipocyte Growth Medium-2 BulletKit, (Lonza) at 30,000 cells/cm^2 density and grown at 37° C. overnight. On the next day, cells were transfected with BBS1, BBS2 or BBS10 specific siRNA in OptiMem (Invitrogen) in the presence of Lipofectamine 2000 (Invitrogen) and differentiated in RDM-2 medium (Lonza) for 10 days with or without Compound 1 at concentrations of […], 5.0 and 10 μM (stock of Compound 1 was prepared in 100% ethanol and diluted with RDM-2 medium to final concentrations before adding to cells). A mixture of nonspecific siRNA (scrambled) was used as a negative control. Media was harvested for leptin analysis with Quantikine ELISA kit (RnD Systems, Inc.) at days 0, 5, 7 and 10 of adipocytes differentiation. Photomicroscopy (Axiovert 25, Zeiss with LASv4.2, Leica) was used to quantify lipid accumulation, which is evident by the size and quantity of lipid vacuoles in the cells.

`CC(C)(NC(=O)OC1CN2CCC1CC2)c1cccc(-c2ccc(F)cc2)c1` (stereo not shown) [Compound 1, 1-azabicyclo[2.2.2]oct-3-yl [2-(4′-fluorobiphenyl-3-yl)propan-2-yl]carbamate]: in assay [1], the GM3 localization entry was “restores GM3 localization similar to what is observed in Wt cells” and the cilia length entry is reported as “elongates cilia”. For the same molecule, in the assay with Bbs2−/− mice [2], the “increase in the thickness of the ONL” value is recorded as roughly 2 fold and the “rod-cone specific staining (rhodopsin, cone arrestin)” value is “partial restoration/preservation of rod-cone specific staining”. Also, in the assay on Bbs2−/− mice [3], the “adenylate cyclase III (ACIII) in the MOE” value is “increase in ACIII”, the “cilia in the MOE (acetylated tubulin)” value was “preservation/restoration of the cilia in the MOE”, the “differentiation in MOE (immature vs mature neurons)” value is listed as “correction of this phenotype to resemble that of wild type animals” and the “olfaction defect (time to find a buried treat)” value is “restored”. Further, in assay [4], the leptin secretion result was “reduction” and the lipid accumulation result is reported as “reduction of lipid accumulation”.
